The values below come from patent publication US20130137741A1 (ALCON RESEARCH, LTD., priority 2009, published 2013).

This assay deals with FGFR. The assay can be described thus: Kinase inhibition, cell-free enzymatic assay. The class given is biochemical. The following applies: 1 mM ATP.

Compound `Cc1ccc(F)c(NC(=O)Nc2ccc(-c3cccc4[nH]nc(N)c34)cc2)c1` [RTK Inhibitor, N-[4-(3-amino-1H-indazol-4-yl)phenyl]-N′-(2-fluoro-5-methylphenyl) urea] gave an IC50 of more than 12.5 µM.

A word on the IC50: it is the concentration needed to halve the response being measured.
